# Read-outs that look alike come from different tables or passages of the source. *1 amine or outer side, *2 acyl side, *3 side chain or, on linkers, in order; H or OH if unused. Where a SMILES comes first, the peptide text is derived from it. [ ]: non-standard residue; d: D form. X3 = CC1C(C)C1C(N[*:1])C(=O)[*:2]; dGly(cPr) = N[C@@H](C(=O)O)C1CC1; Gly(cPr) = N[C@H](C(=O)O)C1CC1; NMeL = CN[CH](CC(C)C)C(=O)O; NMeA = CN[CH](C)C(=O)O; dNMeA = CN[C@H](C)C(=O)O
# What was measured:
# [1] = test system: prostate (LNCaP) carcinoma cell line; test: cells; assay type: cell-based, human; details: 72 hours, read-out: Cytotoxic activity IC50, LNCaP
# Method: (§4) Pure compounds are evaluated against the human cancer cell lines comprising our cytotoxicity screening panel. Cytotoxicity assays involving oral epidermoid (KB), colon (HCT116), prostate (LNCaP), breast (MCF7), Hela (cervical), leukemia (HL-60) melanoma (A375) and lung (A549) carcinoma cell lines, are performed using sulforhodamine B according to established protocols (Zhang et al., Journal of Medicinal Chemistry 2006; 49: 693-708; and Jutiviboonsuk A et al., Phytochemistry 2005; 66: 2745-2751.). KB and A375 cells are maintained in DMEM (Dulbecco's modified Eagle medium) medium. LNCaP and HL60 cells are maintained in RPMI1640 medium with hormone-free 10% heat-activated FBS (fetal bovine serum) supplemented with 0.1 nM testosterone. MCF7 and Hela cells are maintained and assayed in MEME (Minimum Essential Medium Eagle) medium containing 10 mg/L of insulin. HCT116 cells are maintained in McCoy's 5A medium supplemented with 10% fetal bovine serum. A549 cells are maintained in RPMI-1640 medium supplemented with 10% FCS. Serial dilutions of the compounds are prepared using 10% aqueous DMSO as solvent. The 190 μL cell suspension (3×10^4 cells in 1 ml media) is incubated with 10 μL sample solutions, in triplicate, in 96-well tissue culture plate at 37° C. in a humidified atmosphere of 5% CO2 in air for 72 hours. 10 μL 10% aqueous DMSO is used as control group. Then the cells are fixed to plastic substratum by the addition of 100 μL cold 20% aqueous trichloroacetic acid and washing with water after incubation at 4° C. for 30 min. After staining cells with 100 μL of 0.4% sulforhodamine B in 1% aqueous AcOH for 30 min, unbound dye is removed by rinsing with 1% aqueous AcOH. The bound dye is solubilized with 200 μL 10 mM unbuffered Tris base, pH 10, and the optical density is measured at 515 nm using an ELISA plate reader. The average data are expressed as a percentage, relative to the control. The IC50 values, the dose that inhibit cell growth by 50%, are calculated using nonlinear regression analysis (percent survival versus concentration).
# [2] = test system: breast (MCF7) carcinoma cell line; test: cells; assay type: cell-based, human; details: for IC50: 72 hours, read-out: Cytotoxic activity IC50, MCF7; for IC90: read-out: Cytotoxic activity IC90, MCF7
# Method: as §4
# [3] = test system: oral epidermoid (KB) carcinoma cell line; test: Cytotoxicity assay (sulforhodamine B), KB; assay type: cell-based, human; details: KB cells; for IC50: 72 hours, read-out: Cytotoxic activity IC50, KB
# Method: as §4
# MCF7-tumor xenograft = test: MCF7 xenograft mouse model; details: 5 mg/kg, twice a week for 3 weeks
# Method: The treatment started on the 12th day when the MCF7-tumor size reached approximately 100 mm^3 (L×W×H). Two doses of MV-A (1.0 and 2.0 mg/kg), paclitaxel (5 mg/kg), and vehicle were administered via i.p. (intraperitoneal), i.v. (intravenous), or oral respectively, to the tumor-bearing mice twice a week for 3 weeks ([…]).
# Antitumor animal study. All animal studies were approved and performed according to Animal Care and Use Guidelines of the Animal Ethics Committee at Hong Kong Baptist University and performed following Animal Care and Use guidelines set by NIH (National Institute of Health, USA). BALB/c nude mice, SPF class, male or female, 5-6 weeks old, were purchased from Charles River Laboratories. Before the experiment, it is one week of acclimatization to SPF class laboratory conditions. MV-A is tested for its anticancer activity against HCT116 and MCF7 cancer cells using a number of nude mice (Balc/nu/nu, female) in comparison of paclitaxel and maytansine. HCT116 or MCF7 cancer cells are subcutaneously implanted with 5×10^6 cells in the rear flank of each mouse. Female mice receiving MCF-7 cells are implanted with an s.c. pellet of 17β-estradiol (0.72 mg/pellet) a few days prior to injection to induce tumors. […] The mice are divided into 5 groups for HCT116 cancer cells: one high dose (1.0 mg/kg: 10 mice) group of MV-A, one low dose (0.5 mg/kg: 10 mice) group of MV-A, one dose (5.0 mg/kg: 10 mice) of paclitaxel, one dose of maytansine (0.1 mg/kg) and one dose of vehicle (negative control: 10 mice). The mice are then divided into 4 groups for MCF7 cancer cells: one high dose (2.0 mg/kg: 10 mice) group of MV-A, one low dose (1.0 mg/kg: 10 mice) group of MV-A, one dose (5.0 mg/kg: 10 mice) of paclitaxel, and one dose of vehicle (negative control: 10 mice). Every other day administration via i.p. (intraperitoneal), i.v. (intravenous), or oral, respectively are scheduled for 21 days for the HCT116 groups. Twice a week injections administered via i.p. (intraperitoneal), i.v. (intravenous), or oral, respectively are scheduled for […] for the MCF7 groups. Weights of mice and tumor diameters are measured twice a week until the end of the experiment. The tumor size in mm^3 was calculated by the formula: tumor size=length×width×height (L×W×H).
# [4] = test system: lung cancer cell line (A549); test: Hollow fiber in vivo test, A549; parameters: species or system mouse; details: 2.0 mg/kg
# Method: (§1) Hollow fiber tests are well known in the art for providing preliminary indications of therapeutic efficacy (Mi et al. J. Nat. Prod. 2002, 65: 842-850). In hollow fiber tests, human tumor cell lines currently employed in cell cultures are grown inside semipermeable hollow fibers to form heterogeneous solid tumor models. […] By evaluating the test compound's inhibition of tumor cell growth versus the toxic response in the host, a preliminary estimate of therapeutic efficacy is provided in a cost- and time effective manner.
# HCT116-tumor xenograft = test: HCT116 xenograft mouse model; assay type: in vivo; details: 5 mg/kg, every other day for 21 days
# Method: The treatment started on the 6th day when the HCT116-tumor reached approximately 100 mm^3 (L×W×W). […] All mice died for the maytansine group after the initial two treatments at the dose of 0.1 mg/kg, indicating the highly toxicity of maytansine.
# [5] = test system: breast cancer cell line (MCF7); test: Hollow fiber in vivo test, MCF7; parameters: species or system mouse; details: 2.0 mg/kg
# Method: as §1
# [6] = test system: melanoma cancer cell line (A375); test: Hollow fiber in vivo test, A375; parameters: species or system mouse; details: 2.0 mg/kg
# Method: as §1
# [7] = test system: colon (HCT116) carcinoma cell line; test: Cytotoxicity assay (sulforhodamine B), HCT116; details: for IC50: read-out: Cytotoxic activity IC50, HCT116
# Method: as §4
# [8] = test system: lung (A549) carcinoma cell line; test: cells; assay type: cell-based, human; details: for IC50: 72 hours, read-out: Cytotoxic activity IC50, A549; for IC90: read-out: Cytotoxic activity IC90, A549
# Method: as §4
# [9] = test system: colon cancer cell line (HCT116); test: Hollow fiber in vivo test, HCT116; parameters: species or system mouse; details: 2.0 mg/kg
# Method: as §1
# [10] = test system: cervical cancer cell line (Hela); test: Hollow fiber in vivo test, Hela; parameters: species or system mouse; details: 2.0 mg/kg
# Method: as §1
# [11] = test system: murine P388 leukemia cells; details: at a concentration of 10 ng/mL
# [12] = Body weight of mice after drug treatment; details: for Drop of average weight of mice after the first treatment: i.p. injection; for Drop of average weight of mice after six treatments: twice a week
# 3T3-L1 murine adipocytes [13] = details: literature (Shimokawa et al. 2006); cited from earlier work
# [14] = test system: panel of cancer cell lines comprising KB, HCT116, LNCaP, A549, MCF7, HL60, Hela and A375; details: at 2 μM
# [15] = test system: HIV (human immunodeficiency virus)
# 3T3-L1 murine adipocytes [16] = test: 3T3-L1 fat accumulation (triglyceride) assay; assay type: cell-based; details: differentiated 3T3-L1 adipocytes, 7 days, read-out: Anti-obesity activity (fat accumulation) EC50
# Method: (§2) MV-A, MV-B, MV-C and MV-D are evaluated for their anti-obesity effects in 3T3-L1 murine adipocytes. 3T3-L1 cells are cultured in the presence of insulin to induce adipocyte differentiation.
# (§3) Pure compounds are evaluated against 3T3-L1 cell line for their potential anti-obesity activity. […] After the cells reach 100% confluence, the culture medium is changed to a differentiation DMEM medium containing 10% FCS, […], 0.5 mM 3-isobutyl-1-methylxanthine (IBMX), 90 U/mL penicillin, […] and 10 μg/mL insulin for induction of the adipocyte form of the 3T3-L1 cells. After 2 days, the differentiation medium is changed back to the normal DMEM medium and refreshed with the normal medium every 2 days. After incubation of additional 7 days, the cells are seeded in two sets of 96-well plates (about 10,000 cells per well). The test compounds in different concentrations are then added to the wells with 0.5% aqueous DMSO as control group. After incubation of 7 days, the differentiated 3T3-L1 adipocytes are treated with 2% Triton-X 100 ([…]) for 30 min at room temperature followed by sonication for 1 min. Fat accumulation is determined by measuring the liberated triglyceride using a Wato Triglyceride E-test Kit with the absorbance at 630/690 nm. The fat-accumulation rate is calculated as a percentage of the DMSO control. […] The cell viability of the differentiated 3T3-L1 adipocytes in another 96-well plate is treated with a Wako Cell Counting Kit-8 Test and measured with the absorbance at 450 nm. The cell viability is calculated as a percentage of the control.
# 3T3-L1 murine adipocytes [17] = test: 3T3-L1 adipocyte cell viability; assay type: cell-based; details: differentiated 3T3-L1 adipocytes
# Method: as §2, §3
compound,measurement,setting,value
"CC(=O)O[C@H]1C(=O)[C@@]2(C)[C@H]([C@H](OC(=O)c3ccccc3)[C@]3(O)C[C@H](OC(=O)[C@H](O)[C@@H](NC(=O)c4ccccc4)c4ccccc4)C(C)=C1C3(C)C)[C@]1(OC(C)=O)CO[C@@H]1C[C@@H]2O [Paclitaxel, reference compound]",IC50,[1]; Homo sapiens,15.9 nM
same,IC50,[2]; Homo sapiens,3.24 nM
same,IC90,[2]; Homo sapiens,> 30 nM
same,IC50,[3]; Homo sapiens,3.38 nM
same,"Cytotoxic activity IC90, KB",[3],>20 nM
same,Inhibition of MCF7 tumor growth (excised tumor weights),MCF7-tumor xenograft,28.2%
same,Inhibition (%),[4]; A549-IP,39.8%
same,Inhibition (%),[4]; A549-SC,0%
same,Inhibition of HCT116 tumor growth (excised tumor weights),HCT116-tumor xenograft,37.6%
same,Inhibition (%),[5]; MCF7-IP,70.7%
same,Inhibition (%),[5]; MCF7-SC,0%
same,Inhibition (%),[6]; A375-IP,38.1%
same,Inhibition (%),[6]; A375-SC,7.8%
same,IC50,"[7]; Homo sapiens, HCT-116, 72 h",5.78 nM
same,IC90,"[7]; Homo sapiens, HCT-116, read-out: Cytotoxic activity IC90, HCT116",> 20 nM
same,IC50,[8]; Homo sapiens,4.81 nM
same,IC90,[8]; Homo sapiens,> 20 nM
same,Inhibition (%),[9]; HCT116-IP,60.4%
same,Inhibition (%),[9]; HCT116-SC,0%
same,Inhibition (%),[10]; Hela-IP,69.5%
same,Inhibition (%),[10]; Hela-SC,11.1%
CC(C)CC1NC(=O)C(C)N(C)C(=O)C(C)N(C)C(=O)C(C2C(C)C2C)NC(=O)C(CC(C)C)N(C)C(=O)C(C)N(C)C(=O)C(C2C(C)C2C)NC1=O (centres unmarked) [Compound 1] (cyclo([X3][NMeA][NMeA]L[X3][NMeA][NMeL]); configuration not given here),IC50,[1],0.42 nM
same,IC50,[2],0.26 nM
same,IC90,[2],1.47 nM
same,"Cytotoxic activity IC90, KB",[3],1.65 nM
same,IC50,[3],0.05 nM
same,Inhibition of cell growth of murine P388 leukemia cells,[11],100%
same,IC50,"[7]; HCT116 cells, 72 hours",0.25 nM
same,IC90,"[7]; read-out: Cytotoxic activity IC90, HCT116, HCT116 cells",0.69 nM
same,IC50,[8],0.24 nM
same,IC90,[8],1.02 nM
same,Mortality during the treatments,[12]; 1 mg/kg and 2 mg/kg,No mice die
same,Toxicity observed from dissection of the mice,[12]; 1 mg/kg and 2 mg/kg,No sign of toxicity
same,Drop of average weight of mice after the first treatment,[12]; 1 mg/kg,1.5 g
same,Drop of average weight of mice after the first treatment,[12]; 2 mg/kg,2.2 g
same,Drop of average weight of mice after six treatments,[12]; 1 mg/kg,1.7 g
same,Drop of average weight of mice after six treatments,[12]; 2 mg/kg,4.7 g
CC(C)CC1NC(=O)C(C)N(C)C(=O)C(C)N(C)C(=O)C(C2C(C)C2C)NC(=O)C(CC(C)CO)N(C)C(=O)C(C)N(C)C(=O)C(C2C(C)C2C)NC1=O (centres unmarked) [Compound 2],IC50,[2],5.83 nM
same,IC90,[2],9.21 nM
same,"Cytotoxic activity IC90, KB",[3],11.4 nM
same,IC50,[3],0.79 nM
same,Inhibition of cell growth of murine P388 leukemia cells,[11],100%
same,IC50,"[7]; HCT116 cells, 72 hours",2.62 nM
same,IC50,[8],6.35 nM
same,IC90,[8],6.84 nM
Ternatin,Inhibition of fat accumulation against 3T3-L1 murine adipocytes,3T3-L1 murine adipocytes [13],potent inhibitor of fat accumulation
CC(C)C[C@H]1NC(=O)[C@@H](C)N(C)C(=O)[C@H](C)N(C)C(=O)[C@H](C2CC2)NC(=O)[C@H](CC(C)C)N(C)C(=O)[C@H](C)N(C)C(=O)[C@@H](C2CC2)NC1=O [MV-D] (cyclo([Gly(cPr)][NMeA][dNMeA][dL][dGly(cPr)][NMeA][NMeL])),Inhibition activity against the cancer cells,[14],no inhibition activity
same,IC50,[15],1240 nM
same,EC50,3T3-L1 murine adipocytes [16],13.3 nM
same,IC50,3T3-L1 murine adipocytes [17],> 5000 nM

# Reference: patent US9963485B2, “Cycloheptapeptide agents for treatment of cancer and obesity diseases” (Hong Kong Baptist University, priority 2012, dated 2018)
